Reference: PubChem BioAssay (NCI)
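GI50: concentration for 50% inhibition of growth. At the TGI there is no net growth.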

Key:
Assay in all cases: NCI tumour cell line growth inhibition, 384-well format; in the data active = GI50 below about 0.43 µM; inactive = the rest
[1] = test system: DU-145 prostate
[2] = test system: OVCAR-4 ovarian
[3] = test system: MDA-MB-435 melanoma
[4] = test system: SNB-19 CNS
[5] = test system: MOLT-4 leukemia
[6] = test system: IGROV1 ovarian
[7] = test system: NCI-H226 lung
[8] = test system: RXF 393 renal
[9] = test system: HT29 colon
[10] = test system: HCT-15 colon
[11] = test system: SW-620 colon
[12] = test system: U251 glioblastoma
[13] = test system: NCI-H322M lung
[14] = test system: SNB-75 CNS
[15] = test system: MALME-3M melanoma
[16] = test system: MDA-MB-468 breast
[17] = test system: UACC-62 melanoma
[18] = test system: OVCAR-8 ovarian
[19] = test system: K-562 leukemia
[20] = test system: EKVX NSCLC
[21] = test system: NCI/ADR-RES ovarian
[22] = test system: HCC-2998 colon
[23] = test system: 786-0 renal
[24] = test system: SR leukemia
[25] = test system: SF-539 CNS
[26] = test system: SF-295 CNS
[27] = test system: HOP-62 NSCLC
[28] = test system: A549 NSCLC
[29] = test system: COLO 205 colon
[30] = test system: OVCAR-3 ovarian
[31] = test system: BT-549 breast
[32] = test system: HCT-116 colon
[33] = test system: UACC-257 melanoma
[34] = test system: SK-MEL-5 melanoma
[35] = test system: MDA-MB-231 breast
[36] = test system: RPMI-8226 leukemia
[37] = test system: HOP-92 NSCLC
[38] = test system: SK-OV-3 ovarian
[39] = test system: PC-3 prostate
[40] = test system: T-47D breast
[41] = test system: NCI-H23 lung
[42] = test system: SN12C renal
[43] = test system: ACHN renal
[44] = test system: KM12 colon
[45] = test system: UO-31 renal
[46] = test system: A498 renal
[47] = test system: M14 melanoma
[48] = test system: NCI-H522 lung
[49] = test system: HS 578T breast
[50] = test system: CAKI-1 renal
[51] = test system: HL-60(TB) leukemia
[52] = test system: TK-10 renal
[53] = test system: LOX IMVI melanoma
[54] = test system: SK-MEL-28 melanoma
[55] = test system: NCI-H460 NSCLC
[56] = test system: MCF7 breast
[57] = test system: SF-268 CNS
[58] = test system: OVCAR-5 ovarian
[59] = test system: CCRF-CEM leukemia

O=C(C1CC1)N1CC[C@@H](Cc2n[nH]c(=O)n2-c2ccc(-c3ccc4occc4c3)cc2)C1
58.8 µM: TGI [7]
92.4 µM: TGI [56]
active: GI50 [36] 0.066 µM | GI50 [51] 0.0567 µM
64.4 µM: TGI [24]
59.4 µM: TGI [8]
75.7 µM: TGI [27]
86.6 µM: TGI [48]
21.8 µM: TGI [51]
57.5 µM: TGI [26]
27.2 µM: TGI [19]
23.7 µM: TGI [5]
85.1 µM: TGI [21]
48 µM: TGI [32]
38.6 µM: TGI [53]
91.3 µM: TGI [33]
29.6 µM: TGI [34]
17.9 µM: TGI [36]
60.1 µM: TGI [52]
96.6 µM: TGI [15]
59 µM: TGI [30]
72.4 µM: TGI [31]
45.5 µM: TGI [16]
> 100 µM: TGI [1] | TGI [2] | TGI [3] | TGI [4] | TGI [6] | TGI [9] | TGI [10] | TGI [11] | TGI [12] | TGI [13] | TGI [14] | TGI [17] | TGI [18] | TGI [20] | TGI [22] | TGI [23] | TGI [25] | TGI [28] | TGI [29] | TGI [35] | TGI [37] | TGI [38] | TGI [39] | TGI [40] | TGI [41] | TGI [42] | TGI [43] | TGI [44] | TGI [45] | TGI [46] | TGI [47] | TGI [49] | TGI [50] | TGI [54] | TGI [55] | TGI [57]
inactive: GI50 [1] 35.3 µM | GI50 [2] 33.3 µM | GI50 [3] 31.2 µM | GI50 [4] 50.1 µM | GI50 [5] 11.5 µM | GI50 [6] 34.3 µM | GI50 [7] 18.5 µM | GI50 [8] 20.9 µM | GI50 [9] 29.2 µM | GI50 [10] 34.3 µM | GI50 [11] 57.6 µM | GI50 [12] 28 µM | GI50 [13] 36.2 µM | GI50 [14] 34.8 µM | GI50 [15] 30.9 µM | GI50 [16] 15.5 µM | GI50 [17] 34.2 µM | GI50 [18] 36.4 µM | GI50 [19] 13.5 µM | GI50 [20] 22.9 µM | GI50 [21] 22.3 µM | GI50 [22] 25.5 µM | GI50 [23] 25.6 µM | GI50 [24] 24.6 µM | GI50 [25] 53.5 µM | GI50 [26] 18.1 µM | GI50 [27] 19.1 µM | GI50 [28] 23.4 µM | GI50 [29] 42.2 µM | GI50 [30] 21.6 µM | GI50 [31] 13.3 µM | GI50 [32] 20.2 µM | GI50 [33] 38.5 µM | GI50 [34] 15.7 µM | GI50 [35] 39.6 µM | GI50 [37] 37.5 µM | GI50 [38] 33.9 µM | GI50 [39] 42.9 µM | GI50 [40] 29.8 µM | GI50 [41] 29.6 µM | GI50 [42] 30 µM | GI50 [43] 24.6 µM | GI50 [44] 39.6 µM | GI50 [45] 14.9 µM | GI50 [46] 29.4 µM | GI50 [47] 60.9 µM | GI50 [48] 25.3 µM | GI50 [49] 32.5 µM | GI50 [50] 32.4 µM | GI50 [52] 21.7 µM | GI50 [53] 16.9 µM | GI50 [54] 31.1 µM | GI50 [55] 29.7 µM | GI50 [56] 19.9 µM | GI50 [57] 26 µM

Cc1cc(-c2ccc(C3C(C#N)=C(N)Oc4c3c(=O)oc3ccccc43)cc2)cnc1F (stereo not drawn)
49.2 µM: TGI [16]
57.1 µM: TGI [30]
79.9 µM: TGI [49]
82.1 µM: TGI [52]
33.7 µM: TGI [59]
65 µM: TGI [9]
67 µM: TGI [13]
55.6 µM: TGI [25]
> 100 µM: TGI [1] | TGI [2] | TGI [3] | TGI [4] | TGI [6] | TGI [11] | TGI [14] | TGI [15] | TGI [17] | TGI [18] | TGI [19] | TGI [58] | TGI [20] | TGI [21] | TGI [23] | TGI [26] | TGI [27] | TGI [28] | TGI [29] | TGI [31] | TGI [33] | TGI [35] | TGI [38] | TGI [39] | TGI [40] | TGI [41] | TGI [42] | TGI [43] | TGI [44] | TGI [45] | TGI [46] | TGI [47] | TGI [50] | TGI [54] | TGI [55] | TGI [56] | TGI [57]
32.2 µM: TGI [8] | TGI [24]
59.3 µM: TGI [7]
35.4 µM: TGI [48]
44.9 µM: TGI [51]
39.7 µM: TGI [37]
80.3 µM: TGI [22]
45.4 µM: TGI [53]
inactive: GI50 [1] 39.3 µM | GI50 [2] 33.9 µM | GI50 [3] 89 µM | GI50 [4] 62.9 µM | GI50 [5] 15 µM | GI50 [6] 42.5 µM | GI50 [7] 18.4 µM | GI50 [8] 17.4 µM | GI50 [9] 25.1 µM | GI50 [10] 18.9 µM | GI50 [11] 58.3 µM | GI50 [13] 25.4 µM | GI50 [14] 40.9 µM | GI50 [15] 47.7 µM | GI50 [16] 24 µM | GI50 [17] 40.1 µM | GI50 [18] 38.5 µM | GI50 [19] 33.9 µM | GI50 [58] 37.4 µM | GI50 [20] 43.7 µM | GI50 [21] 40 µM | GI50 [22] 29.7 µM | GI50 [23] 43.2 µM | GI50 [24] 17.1 µM | GI50 [25] 24.8 µM | GI50 [26] 46.9 µM | GI50 [27] 34.7 µM | GI50 [28] 54.5 µM | GI50 [29] 64.6 µM | GI50 [30] 26.7 µM | GI50 [31] 27.9 µM | GI50 [33] 58.1 µM | GI50 [59] 17.5 µM | GI50 [34] 29.8 µM | GI50 [35] 39.7 µM | GI50 [36] 14 µM | GI50 [37] 13.9 µM | GI50 [38] 45.9 µM | GI50 [39] 53.1 µM | GI50 [40] 46.4 µM | GI50 [41] 29.6 µM | GI50 [42] 47.7 µM | GI50 [43] 42.6 µM | GI50 [44] > 100 µM | GI50 [45] 30.1 µM | GI50 [46] 31.3 µM | GI50 [47] 90.2 µM | GI50 [48] 17.5 µM | GI50 [49] 29.1 µM | GI50 [50] 43.6 µM | GI50 [51] 24.7 µM | GI50 [52] 30.3 µM | GI50 [53] 21.9 µM | GI50 [54] > 100 µM | GI50 [55] 37.1 µM | GI50 [56] 38 µM | GI50 [57] 50.1 µM
39.3 µM: TGI [10]
28.4 µM: TGI [5]
33.5 µM: TGI [36]
78.1 µM: TGI [34]
